Laboratory results published in ChEMBL document CHEMBL2406981, “Novel pyrazoline amidoxime and their 1,2,4-oxadiazole analogues: synthesis and pharmacological screening” (Bioorg Med Chem Lett, 2013).
≈ marks a conversion by molar mass, not a printed value.

Key:
Assay type in all cases: functional
Aspergillus niger [1] = assay: Antimicrobial activity against Aspergillus niger MTCC 281 at 100 ug/ml after 24 hrs by agar disc diffusion method; details: MTCC 281, 24 h, read-out: DIZ
Bacillus cereus [2] = assay: Antimicrobial activity against Bacillus cereus MTCC 8372
[3] = Antioxidant activity assessed as reducing power of ferric ion at 10 ug/ml after 20 mins; set-up: scale not given: the % may be the effect or the level left
Aspergillus flavus [4] = assay: Antimicrobial activity against Aspergillus flavus MTCC 873
[5] = Antioxidant activity against ferric chloride-induced lipid peroxidation using egg lecithin at 10 ug/ml after 1 hr
[6] = Antioxidant activity against ferric chloride-induced lipid peroxidation using egg lecithin at 100 ug/ml after 1 hr
[7] = Antioxidant activity against ferric chloride-induced lipid peroxidation using egg lecithin at 50 ug/ml after 1 hr
Bacillus cereus [8] = assay: Antimicrobial activity against Bacillus cereus MTCC 8372 at 50 ug/ml after 24 hrs by agar disc diffusion method; details: MTCC 8372, 24 h, read-out: DIZ
Klebsiella pneumoniae [9] = assay: Antimicrobial activity against Klebsiella pneumoniae MTCC 3384 at 50 ug/ml after 24 hrs by agar disc diffusion method; details: MTCC 3384, 24 h, read-out: DIZ
[10] = Antiinflammatory activity against heat-induced albumin denaturation at […] preincubated for 15 mins before heat induction by UV-vis spectrophotometer analysis
[11] = system: Radical scavenging activity; assay: Antioxidant activity assessed as DPPH free radical scavenging activity at 50 ug/ml after 20 mins
Bacillus cereus [12] = assay: Antimicrobial activity against Bacillus cereus MTCC 8372 at 100 ug/ml after 24 hrs by agar disc diffusion method; details: MTCC 8372, 24 h, read-out: DIZ
Shigella flexneri [13] = assay: Antimicrobial activity against Shigella flexneri MTCC 1457 at 100 ug/ml after 24 hrs by agar disc diffusion method; details: MTCC 1457, 24 h, read-out: DIZ
Staphylococcus aureus [14] = assay: Antimicrobial activity against Staphylococcus aureus MTCC 96
Escherichia coli [15] = assay: Antimicrobial activity against Escherichia coli MTCC 724
Staphylococcus aureus [16] = assay: Antimicrobial activity against Staphylococcus aureus MTCC 96 at 50 ug/ml after 24 hrs by agar disc diffusion method; details: MTCC 96, 24 h, read-out: DIZ
[17] = system: Radical scavenging activity; assay: Antioxidant activity assessed as DPPH free radical scavenging activity at 100 ug/ml after 20 mins
Escherichia coli [18] = assay: Antimicrobial activity against Escherichia coli MTCC 724 at 50 ug/ml after 24 hrs by agar disc diffusion method; details: MTCC 724, 24 h, read-out: DIZ
[19] = Antioxidant activity assessed as reducing power of ferric ion at 100 ug/ml after 20 mins; set-up: scale not given: the % may be the effect or the level left
Shigella flexneri [20] = assay: Antimicrobial activity against Shigella flexneri MTCC 1457
[21] = system: Radical scavenging activity; assay: Antioxidant activity assessed as DPPH free radical scavenging activity at 10 ug/ml after 20 mins
Klebsiella pneumoniae [22] = assay: Antimicrobial activity against Klebsiella pneumoniae MTCC 3384
Aspergillus flavus [23] = assay: Antimicrobial activity against Aspergillus flavus MTCC 873 at 50 ug/ml after 24 hrs by agar disc diffusion method; details: MTCC 873, 24 h, read-out: DIZ
Klebsiella pneumoniae [24] = assay: Antimicrobial activity against Klebsiella pneumoniae MTCC 3384 at 100 ug/ml after 24 hrs by agar disc diffusion method; details: MTCC 3384, 24 h, read-out: DIZ
Escherichia coli [25] = assay: Antimicrobial activity against Escherichia coli MTCC 724 at 100 ug/ml after 24 hrs by agar disc diffusion method; details: MTCC 724, 24 h, read-out: DIZ
Shigella flexneri [26] = assay: Antimicrobial activity against Shigella flexneri MTCC 1457 at 50 ug/ml after 24 hrs by agar disc diffusion method; details: MTCC 1457, 24 h, read-out: DIZ
Staphylococcus aureus [27] = assay: Antimicrobial activity against Staphylococcus aureus MTCC 96 at 100 ug/ml after 24 hrs by agar disc diffusion method; details: MTCC 96, 24 h, read-out: DIZ
[28] = Antioxidant activity assessed as reducing power of ferric ion at 50 ug/ml after 20 mins; set-up: scale not given: the % may be the effect or the level left
Aspergillus niger [29] = assay: Antimicrobial activity against Aspergillus niger MTCC 281
Aspergillus niger [30] = assay: Antimicrobial activity against Aspergillus niger MTCC 281 at 50 ug/ml after 24 hrs by agar disc diffusion method; details: MTCC 281, 24 h, read-out: DIZ
Aspergillus flavus [31] = assay: Antimicrobial activity against Aspergillus flavus MTCC 873 at 100 ug/ml after 24 hrs by agar disc diffusion method; details: MTCC 873, 24 h, read-out: DIZ
[32] = Antioxidant activity against ferric chloride-induced lipid peroxidation using egg lecithin at 0.5 ug/ml after 1 hr
[33] = Antioxidant activity against ferric chloride-induced lipid peroxidation using egg lecithin at 5 ug/ml after 1 hr
[34] = Antioxidant activity against ferric chloride-induced lipid peroxidation using egg lecithin at 0.1 ug/ml after 1 hr
[35] = Antioxidant activity against ferric chloride-induced lipid peroxidation using egg lecithin at 0.75 ug/ml after 1 hr
[36] = Antioxidant activity against ferric chloride-induced lipid peroxidation using egg lecithin at 0.05 ug/ml after 1 hr
[37] = Antioxidant activity against ferric chloride-induced lipid peroxidation using egg lecithin at 0.01 ug/ml after 1 hr
[38] = Antioxidant activity against ferric chloride-induced lipid peroxidation using egg lecithin at 1 ug/ml after 1 hr
[39] = Antioxidant activity against ferric chloride-induced lipid peroxidation using egg lecithin at 0.25 ug/ml after 1 hr
[40] = Antioxidant activity against ferric chloride-induced lipid peroxidation using egg lecithin at 2.5 ug/ml after 1 hr

Row | MIC (Bacillus cereus [2]) [µg/mL] | MIC (Aspergillus flavus [4]) [µg/mL] | MIC (Staphylococcus aureus [14]) [µg/mL] | MIC (Escherichia coli [15]) [µg/mL] | MIC (Shigella flexneri [20]) [µg/mL] | Compound | zone of inhibition at 100 µg/mL (Aspergillus niger [1]) [mm] | Activity [3] [%] | inhibition [5] [%] | inhibition [6] [%] | inhibition [7] [%] | zone of inhibition at 50 µg/mL (Bacillus cereus [8]) [mm] | zone of inhibition at 50 µg/mL (Klebsiella pneumoniae [9]) [mm] | inhibition [10] [%] | Activity [11] [%] | zone of inhibition at 100 µg/mL (Bacillus cereus [12]) [mm] | zone of inhibition at 100 µg/mL (Shigella flexneri [13]) [mm] | zone of inhibition at 50 µg/mL (Staphylococcus aureus [16]) [mm] | Activity [17] [%] | zone of inhibition at 50 µg/mL (Escherichia coli [18]) [mm] | Activity [19] [%] | also measured
1 | 30 (≈ 81.9 µM) | 15 (≈ 40.9 µM) | 50 (≈ 136 µM) | 50 (≈ 136 µM) | 20 (≈ 54.6 µM) | c1ccc(C2=NN(c3ccccc3)C(c3noc(-c4ccccc4)n3)C2)cc1 (stereo not drawn) | 14 | 6 | 21 | 57 | 40 | 4 | 4 | 23.3 | 28 | 8 | 8 | 2 | 39 | 3 | 58 | Activity [21]: 18%; MIC (Klebsiella pneumoniae [22]): 30 µg/mL (≈ 81.9 µM); zone of inhibition at 50 µg/mL (Aspergillus flavus [23]): 9 mm; zone of inhibition at 100 µg/mL (Klebsiella pneumoniae [24]): 6 mm; zone of inhibition at 100 µg/mL (Escherichia coli [25]): 8 mm; zone of inhibition at 50 µg/mL (Shigella flexneri [26]): 4 mm; zone of inhibition at 100 µg/mL (Staphylococcus aureus [27]): 8 mm; Activity [28]: 16%; MIC (Aspergillus niger [29]): 15 µg/mL (≈ 40.9 µM); zone of inhibition at 50 µg/mL (Aspergillus niger [30]): 10 mm; zone of inhibition at 100 µg/mL (Aspergillus flavus [31]): 12 mm
2 | 35 (≈ 81.2 µM) | 15 (≈ 34.8 µM) | 30 (≈ 69.6 µM) | 35 (≈ 81.2 µM) | 25 (≈ 58 µM) | COc1ccccc1-c1nc(C2CC(c3ccc(Cl)cc3)=NN2c2ccccc2)no1 (stereo not drawn) | 20 | 12 | 21 | 67 | 38 | 4 | 6 | 56.8 | 30 | 8 | 8 | 5 | 64 | 4 | 68 | Activity [21]: 24%; MIC (Klebsiella pneumoniae [22]): 25 µg/mL (≈ 58 µM); zone of inhibition at 50 µg/mL (Aspergillus flavus [23]): 9 mm; zone of inhibition at 100 µg/mL (Klebsiella pneumoniae [24]): 8 mm; zone of inhibition at 100 µg/mL (Escherichia coli [25]): 8 mm; zone of inhibition at 50 µg/mL (Shigella flexneri [26]): 6 mm; zone of inhibition at 100 µg/mL (Staphylococcus aureus [27]): 10 mm; Activity [28]: 23%; MIC (Aspergillus niger [29]): 15 µg/mL (≈ 34.8 µM); zone of inhibition at 50 µg/mL (Aspergillus niger [30]): 10 mm; zone of inhibition at 100 µg/mL (Aspergillus flavus [31]): 10 mm
3 | 30 (≈ 95.3 µM) | 25 (≈ 79.4 µM) | 40 (≈ 127 µM) | 40 (≈ 127 µM) | 20 (≈ 63.5 µM) | N/C(=N\O)C1CC(c2ccc(Cl)cc2)=NN1c1ccccc1 (stereo not drawn) | 8 | 11 | 18 | 14 | 12 | 4 | 8 | 59.1 | 39 | 8 | 12 | 3 | 69 | 3 | 68 | Activity [21]: 29%; MIC (Klebsiella pneumoniae [22]): 20 µg/mL (≈ 63.5 µM); zone of inhibition at 50 µg/mL (Aspergillus flavus [23]): 6 mm; zone of inhibition at 100 µg/mL (Klebsiella pneumoniae [24]): 10 mm; zone of inhibition at 100 µg/mL (Escherichia coli [25]): 10 mm; zone of inhibition at 50 µg/mL (Shigella flexneri [26]): 8 mm; zone of inhibition at 100 µg/mL (Staphylococcus aureus [27]): 5 mm; Activity [28]: 28%; MIC (Aspergillus niger [29]): 20 µg/mL (≈ 63.5 µM); zone of inhibition at 50 µg/mL (Aspergillus niger [30]): 8 mm; zone of inhibition at 100 µg/mL (Aspergillus flavus [31]): 10 mm
4 | 15 (≈ 33.9 µM) | 10 (≈ 22.6 µM) | 20 (≈ 45.2 µM) | 25 (≈ 56.5 µM) | 15 (≈ 33.9 µM) | COc1ccc(-c2nc(C3CC(c4ccc(O)cc4)=NN3c3ccccc3)no2)cc1OC (stereo not drawn) | 26 | 18 | 32 | 73 | 45 | 10 | 8 | 58.5 | 53 | 16 | 18 | 8 | 76 | 7 | 75 | Activity [21]: 31%; MIC (Klebsiella pneumoniae [22]): 25 µg/mL (≈ 56.5 µM); zone of inhibition at 50 µg/mL (Aspergillus flavus [23]): 14 mm; zone of inhibition at 100 µg/mL (Klebsiella pneumoniae [24]): 12 mm; zone of inhibition at 100 µg/mL (Escherichia coli [25]): 12 mm; zone of inhibition at 50 µg/mL (Shigella flexneri [26]): 10 mm; zone of inhibition at 100 µg/mL (Staphylococcus aureus [27]): 18 mm; Activity [28]: 24%; MIC (Aspergillus niger [29]): 5 µg/mL (≈ 11.3 µM); zone of inhibition at 50 µg/mL (Aspergillus niger [30]): 18 mm; zone of inhibition at 100 µg/mL (Aspergillus flavus [31]): 20 mm
5 | 20 (≈ 48 µM) | 15 (≈ 36 µM) | 25 (≈ 60 µM) | 20 (≈ 48 µM) | 20 (≈ 48 µM) | Oc1ccc(C2=NN(c3ccccc3)C(c3noc(-c4ccc(Cl)cc4)n3)C2)cc1 (stereo not drawn) | 18 | 14 | 40 | 80 | 61 | 8 | 10 | 74.6 | 51 | 10 | 18 | 6 | 70 | 8 | 76 | Activity [21]: 30%; MIC (Klebsiella pneumoniae [22]): 15 µg/mL (≈ 36 µM); zone of inhibition at 50 µg/mL (Aspergillus flavus [23]): 10 mm; zone of inhibition at 100 µg/mL (Klebsiella pneumoniae [24]): 12 mm; zone of inhibition at 100 µg/mL (Escherichia coli [25]): 14 mm; zone of inhibition at 50 µg/mL (Shigella flexneri [26]): 8 mm; zone of inhibition at 100 µg/mL (Staphylococcus aureus [27]): 10 mm; Activity [28]: 26%; MIC (Aspergillus niger [29]): 10 µg/mL (≈ 24 µM); zone of inhibition at 50 µg/mL (Aspergillus niger [30]): 12 mm; zone of inhibition at 100 µg/mL (Aspergillus flavus [31]): 18 mm
6 | – | – | – | – | – | VITAMIN E | – | – | 47 | 92 | 62 | – | – | – | – | – | – | – | – | – | – | inhibition [32]: 6%; inhibition [33]: 26%; inhibition [34]: 3.4%; inhibition [35]: 7.7%; inhibition [36]: 2%; inhibition [37]: 1.2%; inhibition [38]: 9.3%; inhibition [39]: 4.1%; inhibition [40]: 17%
7 | 30 (≈ 74.8 µM) | 10 (≈ 24.9 µM) | 50 (≈ 125 µM) | 45 (≈ 112 µM) | 25 (≈ 62.4 µM) | Clc1ccc(C2=NN(c3ccccc3)C(c3noc(-c4ccccc4)n3)C2)cc1 (stereo not drawn) | 18 | 13 | 31 | 71 | 44 | 5 | 6 | 60 | 40 | 8 | 8 | 3 | 68 | 4 | 62 | Activity [21]: 23%; MIC (Klebsiella pneumoniae [22]): 25 µg/mL (≈ 62.4 µM); zone of inhibition at 50 µg/mL (Aspergillus flavus [23]): 12 mm; zone of inhibition at 100 µg/mL (Klebsiella pneumoniae [24]): 8 mm; zone of inhibition at 100 µg/mL (Escherichia coli [25]): 10 mm; zone of inhibition at 50 µg/mL (Shigella flexneri [26]): 6 mm; zone of inhibition at 100 µg/mL (Staphylococcus aureus [27]): 11 mm; Activity [28]: 26%; MIC (Aspergillus niger [29]): 15 µg/mL (≈ 37.4 µM); zone of inhibition at 50 µg/mL (Aspergillus niger [30]): 9 mm; zone of inhibition at 100 µg/mL (Aspergillus flavus [31]): 18 mm
